Results on 10 compounds are retold here after ChEMBL document CHEMBL1201862, “PubChem BioAssay data set” (2004).

Molecules are shown by their SMILES.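 1) Cells in 96-well plates. 2) Compound, 48 h, 5 concentrations. 3) Linear interpolation between surrounding doses. 4) Unreached endpoint = highest concentration. The concentration for 50% growth inhibition is given as GI50.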 The source made the active and inactive calls. No stated cut-off is given here; in the data, active = GI50 up to about 1.1 µM and inactive = higher. Peptide text beside a SMILES is read from it. * marks the point of attachment. X27 = Clc1c(Cl)c(Cl)c(O*)c(Cl)c1Cl; Boc = CC(C)(C)OC(=O)*; OBn = c1ccc(CO*)cc1; Bn = c1ccc(C*)cc1

Among the test systems are CCRF-CEM; HCT-15; Hs-578T; M14; MDA-N; Malme-3M; NCI-H23; OVCAR-3; OVCAR-4; RPMI-8226; RXF 393; SF-295; SK-MEL-2; SK-MEL-5; SN12C; SNB-19; SR; TK-10; UACC-257; UO-31.
Assay in all cases: NCI tumour cell line growth inhibition, 48 h

With `CCc1nc(N)nc(N)c1-c1ccc(N2CCNCC2)c([N+](=O)[O-])c1`, the GI50 in the assay with CCRF-CEM is 4.74 µM (inactive); with HCT-15 it was 35.7 µM; with Hs-578T, 18.5 µM (inactive); with M14, 7.08 µM (inactive); in the assay with MDA-N it was 4.85 µM (inactive); with Malme-3M, 15.5 µM (inactive). For the same compound, the GI50 with NCI-H23 is 7.85 µM (inactive); with OVCAR-3, 35.3 µM (inactive); in the assay with OVCAR-4 it was 32.7 µM (inactive); in the assay with RPMI-8226, 29.5 µM (inactive); in the assay on RXF 393 it was 24.5 µM (inactive); with SF-295, 7.96 µM (inactive). For the same compound, the GI50 in the assay with SK-MEL-2 was 36.9 µM (inactive); with SK-MEL-5 it was 8.59 µM (inactive); in the assay on SN12C, 22 µM (inactive); with SNB-19 it was 41.5 µM (inactive); in the assay with SR, 4.35 µM (inactive); in the assay with TK-10 it was > 100 µM (inactive). Further, the GI50 is 13.9 µM (inactive) in the assay on UACC-257 and 78.7 µM (inactive) with UO-31.

Take `COc1cc2c3c(c1OC)-c1cc4c(cc1CC3(C#N)N(C(=O)c1ccccc1)CC2)OCO4` (stereo not drawn): the GI50 in the assay with CCRF-CEM is > 100 µM (inactive); with HCT-15 it was more than 100 µM; in the assay with Hs-578T it was 19.6 µM (inactive); in the assay with M14, 54.2 µM (inactive); with MDA-N, > 100 µM (inactive); in the assay with Malme-3M, 35.3 µM (inactive). Also, the GI50 with NCI-H23 is 25.5 µM (inactive); in the assay with OVCAR-3, 40.5 µM (inactive); in the assay with OVCAR-4, 15.3 µM (inactive); in the assay on RPMI-8226 it was > 87.5 µM (inactive); in the assay on RXF 393, 8.73 µM (inactive); with SF-295, 33.3 µM (inactive). The GI50 in the assay with SK-MEL-2 is 46.6 µM (inactive); in the assay with SK-MEL-5 it was 29.2 µM (inactive); in the assay on SN12C, 50.7 µM (inactive); with SNB-19 it was 22.2 µM (inactive); in the assay with SR, 65.9 µM (inactive); with TK-10, 36 µM (inactive). Besides, the values for the GI50 in the assay with UACC-257 and with UO-31 were 60.4 µM (inactive) and 51.2 µM (inactive), respectively.

Take `C#CC1NC(=O)C1N(CC)CC` (stereo not drawn): the GI50 with CCRF-CEM is > 100 µM (inactive); with HCT-15, more than 100 µM; in the assay on Hs-578T, > 100 µM (inactive); with M14, > 100 µM (inactive); in the assay on MDA-N, > 100 µM (inactive); with Malme-3M, > 100 µM (inactive). In addition, the GI50 in the assay on NCI-H23, in the assay with OVCAR-3, with OVCAR-4, with RPMI-8226, in the assay with RXF 393 and in the assay on SF-295 was > 100 µM (inactive) throughout. Further, the GI50 with SK-MEL-2, in the assay on SK-MEL-5, with SN12C, with SNB-19, with SR and in the assay on TK-10 was > 100 µM (inactive) in each case. Further, the GI50 in the assay with UACC-257 and with UO-31 was > 100 µM (inactive) in each case.

As to `Cc1ccc([N+](=O)[O-])c2c(NCCCN(C)C)ccnc12`, the GI50 with CCRF-CEM is > 100 µM (inactive); with HCT-15, 35 µM; with Hs-578T, > 100 µM (inactive); in the assay on M14 it was > 59.2 µM (inactive); in the assay on MDA-N it was 33.5 µM (inactive); in the assay with Malme-3M it was 17 µM (inactive). Moreover, the GI50 is 28.2 µM (inactive) with NCI-H23; 33.1 µM (inactive) in the assay with OVCAR-3; 22.4 µM (inactive) in the assay on OVCAR-4; > 100 µM (inactive) with RPMI-8226; > 100 µM (inactive) with RXF 393; > 100 µM (inactive) in the assay with SF-295. The GI50 with SK-MEL-2 was 36.6 µM (inactive); with SK-MEL-5, 29.6 µM (inactive); in the assay on SN12C, 44.3 µM (inactive); with SNB-19, > 100 µM (inactive); in the assay on SR it was 66.4 µM (inactive); in the assay on TK-10, > 100 µM (inactive). The GI50 is 39.2 µM (inactive) in the assay with UACC-257 and > 100 µM (inactive) with UO-31.

In the case of `Clc1ccccc1-c1nc2cc(C34CC5CC(CC(C5)C3)C4)ccc2[nH]1`, the GI50 with CCRF-CEM is 33 µM (inactive); with HCT-15 it was 41.9 µM; in the assay on Hs-578T it was 28.8 µM (inactive); in the assay on M14 it was 19.8 µM (inactive); in the assay on MDA-N it was 44 µM (inactive); in the assay with Malme-3M, 25.5 µM (inactive). The GI50 with NCI-H23 was 14.4 µM (inactive); in the assay on OVCAR-4, 21.5 µM (inactive); in the assay on RPMI-8226, 34.2 µM (inactive); in the assay on RXF 393 it was 5.4 µM (inactive); in the assay with SF-295 it was 13.6 µM (inactive); in the assay with SK-MEL-2, 15 µM (inactive). Besides, the GI50 was 32.7 µM (inactive) in the assay with SK-MEL-5; 24.3 µM (inactive) with SN12C; 10 µM (inactive) with SNB-19; 20.2 µM (inactive) in the assay on SR; 19.1 µM (inactive) in the assay on TK-10; 59.7 µM (inactive) in the assay with UACC-257. For the same compound, in the assay on UO-31, the GI50 is 14.7 µM (inactive).

For the compound `Nc1nccc(NCC2(CO)CC(CCc3ccccc3)C2)n1` (stereo not drawn), the GI50 in the assay on CCRF-CEM was 15.1 µM (inactive); in the assay with HCT-15 it was 18 µM; in the assay with Hs-578T, 19.8 µM (inactive); in the assay on MDA-N it was 14.9 µM (inactive); with Malme-3M it was 13.7 µM (inactive); with NCI-H23 it was 12.2 µM (inactive). In addition, the GI50 in the assay with OVCAR-3 is 12.3 µM (inactive); in the assay on OVCAR-4, 20.7 µM (inactive); in the assay on RPMI-8226, 10.8 µM (inactive); with RXF 393, 15.6 µM (inactive); with SF-295 it was 10.8 µM (inactive); in the assay on SK-MEL-2 it was 14.5 µM (inactive). The GI50 with SK-MEL-5 is 4.06 µM (inactive); with SN12C, 19.4 µM (inactive); with SR, 8.71 µM (inactive); with TK-10, 12.5 µM (inactive); in the assay on UACC-257, 14.3 µM (inactive); in the assay on UO-31, 12.5 µM (inactive).

Regarding `[O-][Cl+3]([O-])([O-])[O-].[O-][Cl+3]([O-])([O-])[O-].c1ccn2c(N3CCOCC3)[n+]3c4ccccc4[n+]4c(N5CCOCC5)n5ccccc5c4c3c2c1`, the GI50 is > 100 µM (inactive) in the assay with CCRF-CEM; more than 100 µM with HCT-15; 33.7 µM (inactive) with Hs-578T; > 100 µM (inactive) with M14; 63.5 µM (inactive) in the assay on MDA-N; 66.2 µM (inactive) with Malme-3M. Besides, the GI50 with NCI-H23, with OVCAR-3, in the assay with OVCAR-4, in the assay with RPMI-8226, with RXF 393 and with SF-295 was > 100 µM (inactive) each time. Besides, the GI50 in the assay on SK-MEL-2 was > 100 µM (inactive); in the assay on SK-MEL-5, 34 µM (inactive); in the assay with SN12C, 17.7 µM (inactive); in the assay with SNB-19, 63.2 µM (inactive); in the assay with SR, 41.3 µM (inactive); with TK-10, > 100 µM (inactive). The GI50 in the assay with UACC-257 was 68.9 µM (inactive).

`CC(C)CC(NC(=O)C(CCC(=O)OCc1ccccc1)NC(=O)OC(C)(C)C)C(=O)NC(COCc1ccccc1)C(=O)NC(Cc1ccccc1)C(=O)Oc1c(Cl)c(Cl)c(Cl)c(Cl)c1Cl` (stereo not drawn) (Boc-E(OBn)LS(Bn)F-X27; configuration not given here): the GI50 is 26.7 µM (inactive) in the assay on CCRF-CEM; 25.8 µM in the assay with HCT-15; 25.1 µM (inactive) in the assay with Hs-578T; 28 µM (inactive) with M14; 20 µM (inactive) in the assay with MDA-N; 33.1 µM (inactive) with Malme-3M. The GI50 is 16.1 µM (inactive) in the assay on NCI-H23; 35.6 µM (inactive) in the assay with OVCAR-4; 20.5 µM (inactive) in the assay on RPMI-8226; 21.4 µM (inactive) in the assay on RXF 393; 25.5 µM (inactive) in the assay with SF-295; 34 µM (inactive) in the assay on SK-MEL-2. Moreover, the GI50 is 18.4 µM (inactive) with SK-MEL-5; 29.1 µM (inactive) in the assay on SN12C; 28.7 µM (inactive) in the assay on SNB-19; 29.2 µM (inactive) in the assay on SR; 30.3 µM (inactive) with TK-10; 28.2 µM (inactive) in the assay on UACC-257. The GI50 in the assay with UO-31 is 22.2 µM (inactive).

`CN1CCN(C2=CC(=O)c3c(O)ccc(O)c3C2=O)CC1`: the GI50 was 0.501 µM (active) in the assay with CCRF-CEM; 2.03 µM (inactive) in the assay on Hs-578T; 0.647 µM (active) in the assay with M14; 0.175 µM (active) with MDA-N; 0.228 µM (active) in the assay on Malme-3M; 1.4 µM (inactive) with NCI-H23. Also, the GI50 in the assay with OVCAR-3 is 0.23 µM (active); in the assay on OVCAR-4, 2.02 µM (inactive); with RPMI-8226, 1.37 µM (inactive); with RXF 393, 1.57 µM (inactive); in the assay on SF-295 it was 1.69 µM (inactive); in the assay on SK-MEL-2 it was 2.45 µM (inactive). The GI50 with SK-MEL-5 was 0.179 µM (active); in the assay with SN12C, 1.64 µM (inactive); with SNB-19, 1.69 µM (inactive); in the assay on SR it was 1.38 µM (inactive); with TK-10 it was 2.74 µM (inactive); in the assay with UACC-257, 0.244 µM (active). For the same compound, the GI50 in the assay with UO-31 was 1.55 µM (inactive).

On to `CN(C)c1ccc(/C=C(\NC(=O)c2ccccc2)C2NC(Cc3c[nH]c4ccccc34)C(=O)O2)cc1` (stereo not drawn), for which the GI50 in the assay with CCRF-CEM was 8.91 µM (inactive); in the assay on HCT-15, 14.3 µM; in the assay with Hs-578T, 11.2 µM (inactive); in the assay on M14 it was 42.2 µM (inactive); in the assay with MDA-N, 34.8 µM (inactive); in the assay with Malme-3M it was 21.4 µM (inactive). In addition, the GI50 in the assay with NCI-H23 was 14 µM (inactive); with OVCAR-3 it was 60.8 µM (inactive); in the assay with OVCAR-4 it was 12.3 µM (inactive); in the assay on RPMI-8226 it was 6.71 µM (inactive); in the assay on RXF 393, > 91 µM (inactive); in the assay on SF-295, 36.1 µM (inactive). For the same compound, the GI50 with SK-MEL-2 was 27.3 µM (inactive); in the assay on SK-MEL-5, 8.85 µM (inactive); in the assay with SN12C it was > 28.5 µM (inactive); in the assay on SNB-19, 12 µM (inactive); in the assay with SR it was 41.8 µM (inactive); in the assay on UACC-257 it was 40.6 µM (inactive). For the same compound, in the assay with UO-31, the GI50 is 17.3 µM (inactive).
